The source of these data is PMC6751662, “Pharmacological and functional similarities of the human neuropeptide Y system in C. elegans challenges phylogenetic views on the FLP/NPR system” (Cell Communication and Signaling : CCS, 2019).

Assay type in all cases: cell-based, C. elegans
The target in one assay is T1, NPR-3 (Caenorhabditis elegans, UniProt P90745).
T1 construct: expressed in transfected cells; host or cells: HEK293
T1 sequence (P90745 1-376): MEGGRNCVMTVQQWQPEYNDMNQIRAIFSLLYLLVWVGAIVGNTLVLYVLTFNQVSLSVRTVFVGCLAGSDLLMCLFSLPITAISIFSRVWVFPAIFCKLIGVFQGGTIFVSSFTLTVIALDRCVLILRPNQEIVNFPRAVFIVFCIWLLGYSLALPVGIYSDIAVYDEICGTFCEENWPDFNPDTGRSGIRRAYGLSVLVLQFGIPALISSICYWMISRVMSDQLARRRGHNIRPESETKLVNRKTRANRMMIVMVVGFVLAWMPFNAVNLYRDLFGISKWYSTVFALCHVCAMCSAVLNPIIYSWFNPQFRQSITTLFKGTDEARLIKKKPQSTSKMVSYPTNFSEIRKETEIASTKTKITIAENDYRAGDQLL
Kind of assay: cAMP reporter gene assay, Gi/o (inhibition of forskolin-induced cAMP), NPR-3. The settings on record: for cAMP, x-fold of forskolin (mean), NPR-3: 1 µM forskolin set to 1.00, transiently transfected HEK293 cells, mean of at least three independent experiments. The protocol: (§1) Activation of Gs and Gi/o was assessed with a cAMP reporter gene assay. HEK293 cells grown to 70–80% confluency in 6-well plates were transiently co-transfected with vectors encoding the receptor and the cAMP reporter gene plasmid pGL4.29 [luc2P/CRE/Hygro] (Promega; 4 μg total, 1:1 ratio) using Metafectene Pro (3 μl/μg DNA; Biontex) following the manufacturer’s instructions. 16 h post transfection, the cells were seeded into white 384-well plates at a density of 20,000 cells/well. On the next day, the medium was removed and the cells were stimulated with 20 μl of peptide solution (or forskolin as positive control) in serum-free DMEM for 4 h. For measuring Gi/o activity, the peptide solutions additionally contained 1 μM forskolin to elevate cellular cAMP levels. After incubation, the luciferase substrate OneGlo in lysis buffer (Promega) was added and the luminescence was measured in a microplate reader Tecan Spark (Tecan). Data were analyzed with GraphPad Prism 5.03 and are shown as fold of basal or fold of forskolin in case of Gαi/o activity.
(§2) For in vitro activation, data is presented as mean ± SEM of at least three independent experiments conducted in technical triplicate. […] For the C. elegans NPRs, we considered the strongest response elicited by any of the peptides downstream of a particular receptor as the receptor’s maximal signal. This may or may not be the biological maximum that can be reached by the ‘true’ endogenous agonist. For the human receptors, the response to the established endogenous agonist reflected the maximal signal.

The target of the next assay is T2, NPR-5b (Caenorhabditis elegans, UniProt Q6F3C9).
T2 sequence (Q6F3C9 1-433): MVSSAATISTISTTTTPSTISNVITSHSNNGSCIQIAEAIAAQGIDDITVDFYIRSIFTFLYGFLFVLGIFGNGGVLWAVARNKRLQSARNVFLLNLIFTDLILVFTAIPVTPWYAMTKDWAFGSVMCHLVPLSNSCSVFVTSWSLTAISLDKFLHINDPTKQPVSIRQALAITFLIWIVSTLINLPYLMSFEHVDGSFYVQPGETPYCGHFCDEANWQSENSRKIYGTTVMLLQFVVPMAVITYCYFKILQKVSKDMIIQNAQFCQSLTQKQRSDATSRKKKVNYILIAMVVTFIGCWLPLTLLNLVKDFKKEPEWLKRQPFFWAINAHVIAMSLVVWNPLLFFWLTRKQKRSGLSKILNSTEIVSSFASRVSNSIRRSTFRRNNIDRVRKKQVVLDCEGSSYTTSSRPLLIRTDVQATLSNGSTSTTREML
The assay is described as follows: cAMP reporter gene assay, Gi/o (with forskolin), NPR-5b. More on the design: Emax: unit not given here. The note with it: transiently transfected HEK293 cells; for cAMP, x-fold of forskolin (mean), NPR-5b: 1 µM forskolin set to 1.00, values > 1 = cAMP stimulation, mean of at least three independent experiments. The method, then: as §1, with “(Tecan).” for “(Tecan). Data were analyzed with GraphPad Prism 5.03 and are shown as fold of basal or fold of forskolin in case of Gαi/o activity.”
as §2

A further assay addresses T3, NPR-11 (Caenorhabditis elegans, UniProt Q18179).
T3 construct: expressed in transfected cells; host or cells: HEK293, transient
T3 sequence (Q18179 1-402): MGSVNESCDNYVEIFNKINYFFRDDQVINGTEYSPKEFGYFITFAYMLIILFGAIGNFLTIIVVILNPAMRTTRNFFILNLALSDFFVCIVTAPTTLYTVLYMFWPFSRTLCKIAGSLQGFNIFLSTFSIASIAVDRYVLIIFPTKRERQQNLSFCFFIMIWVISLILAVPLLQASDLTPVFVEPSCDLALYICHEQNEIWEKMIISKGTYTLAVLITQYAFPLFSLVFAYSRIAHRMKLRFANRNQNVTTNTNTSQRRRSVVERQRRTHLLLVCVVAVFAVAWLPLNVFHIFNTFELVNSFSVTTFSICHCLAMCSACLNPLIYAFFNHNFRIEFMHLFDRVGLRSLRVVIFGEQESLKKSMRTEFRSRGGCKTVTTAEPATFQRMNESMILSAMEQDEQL
The assay is described as follows: cAMP reporter gene assay, Gi/o (inhibition of forskolin-induced cAMP), NPR-11. The note with it: for cAMP, x-fold of forskolin (mean), NPR-11: 1 µM forskolin set to 1.00, mean of at least three independent experiments. The protocol:
as §1, §2

Where [1] appears, read: 0.1 µM peptide, transiently transfected HEK293 cells.
[2] abbreviates: 10 µM peptide, transiently transfected HEK293 cells.
Where [3] appears, read: HEK293, read-out: Emax ± SEM [%], SEM.

Ends that are not written are not given here.

Regarding “NPENDTPFGTMRF-NH2 [FLP-3-4, C. elegans FMRFamide-like peptide, C-terminally amidated, synthesized by SPPS]”, the “cAMP, x-fold of forskolin (mean), NPR-3” value at NPR-3 (0.1 µM peptide) is 0.85 x-fold of forskolin; on NPR-3 (10 µM peptide), 0.89 x-fold of forskolin. Moreover, the “cAMP, x-fold of forskolin (mean), NPR-5b” value at NPR-5b (0.1 µM peptide) is 1.10 x-fold of forskolin; on NPR-5b (10 µM peptide), 3.95 x-fold of forskolin. Also, the “cAMP, x-fold of forskolin (mean), NPR-11” value on NPR-11 (setting [1]) is on record as 0.80 x-fold of forskolin; on NPR-11 (setting [2]) it was 0.97 x-fold of forskolin.
In the case of “TPDINPAWYASRGIRPVGRF-NH2 [PrRP20, human prolactin-releasing peptide, 20 residues, reference compound]”, the entries for the “cAMP, x-fold of forskolin (mean), NPR-3” value at NPR-3 (0.1 µM peptide) and on NPR-3 (10 µM peptide) were 1.00 x-fold of forskolin and 1.23 x-fold of forskolin, respectively. The “cAMP, x-fold of forskolin (mean), NPR-5b” value was 0.90 x-fold of forskolin at NPR-5b (0.1 µM peptide) and 1.05 x-fold of forskolin at NPR-5b (10 µM peptide). Besides, the “cAMP, x-fold of forskolin (mean), NPR-11” value on NPR-11 (setting [1]) was 0.90 x-fold of forskolin; at NPR-11 (setting [2]), 0.65 x-fold of forskolin.
As for “EASAFGDIIGELKGKGLGGRMRF-NH2 [FLP-27, NPY-like C. elegans FLP with C-terminal RxRF/Ya signature]”, the “cAMP, x-fold of forskolin (mean), NPR-3” value is reported as 0.84 x-fold of forskolin at NPR-3 (0.1 µM peptide) and 1.15 x-fold of forskolin on NPR-3 (10 µM peptide). The “cAMP, x-fold of forskolin (mean), NPR-5b” value was 0.88 x-fold of forskolin on NPR-5b (0.1 µM peptide) and 1.61 x-fold of forskolin on NPR-5b (10 µM peptide). Further, the “cAMP, x-fold of forskolin (mean), NPR-11” value at NPR-11 (setting [1]) is recorded as 0.71 x-fold of forskolin; on NPR-11 (setting [2]), 0.20 x-fold of forskolin.
With GLGPRPLRF-NH2 [FLP-21], the Emax at NPR-3 (setting [3]) is -0.59 ± 0.26%; at NPR-5b (NPR-5b, forskolin (1 µM) set to 1.00, increase of cAMP, mean ± SEM of at least three independent experiments, SEM), 3.8 ± 0.26; on NPR-11 (setting [3]), -0.72 ± 0.06%. In addition, the EC50 on NPR-5b (NPR-5b, full concentration-response curve, with 1 µM forskolin, increase of cAMP, at least three independent experiments) came out at 432 nM; at NPR-11, 102 nM.
For the substance PrRP31 [reference compound], the entries for the “cAMP, x-fold of forskolin (mean), NPR-3” value on NPR-3 (0.1 µM peptide) and on NPR-3 (10 µM peptide) were 1.10 x-fold of forskolin and 1.29 x-fold of forskolin, respectively. Also, the “cAMP, x-fold of forskolin (mean), NPR-5b” value is given as 0.91 x-fold of forskolin at NPR-5b (0.1 µM peptide) and 1.10 x-fold of forskolin at NPR-5b (10 µM peptide). Further, the “cAMP, x-fold of forskolin (mean), NPR-11” value at NPR-11 (setting [1]) is on record as 1.06 x-fold of forskolin; at NPR-11 (setting [2]), 0.74 x-fold of forskolin.
Take “APLEGFEDMSGFLRTIDGIQKPRF-NH2 [FLP-33, NPY-like C. elegans FLP with C-terminal RxRF/Ya signature]”: the “cAMP, x-fold of forskolin (mean), NPR-3” value is on record as 0.77 x-fold of forskolin on NPR-3 (0.1 µM peptide) and 0.85 x-fold of forskolin at NPR-3 (10 µM peptide). Further, the “cAMP, x-fold of forskolin (mean), NPR-5b” value at NPR-5b (0.1 µM peptide) was 0.79 x-fold of forskolin; on NPR-5b (10 µM peptide), 0.85 x-fold of forskolin. Besides, the entries for the “cAMP, x-fold of forskolin (mean), NPR-11” value on NPR-11 (setting [1]) and on NPR-11 (setting [2]) were 0.77 x-fold of forskolin and 0.21 x-fold of forskolin, respectively. In addition, on NPR-11 (NPR-11, forskolin (1 µM) set to 1.00, lower values correspond to high Gi/o activity, transiently transfected HEK293 cells, mean ± SEM of at least three independent experiments, SEM), the “Emax ± SEM [%]” value is -0.57 ± 0.06%.
